Test results published in paper PMC6135860 (Neuropsychopharmacology, 2018).
Like-named read-outs stand apart in the source and are kept apart here.

How the values were obtained:
humanized PDE4D mice [1] = assay: Scopolamine-induced memory impairment in novel object recognition, 1 h inter-trial interval; format: in vivo, mouse; details: scopolamine 0.1 mg/kg IP 30 min prior to training
Experimental: The novel object recognition test was performed as described elsewhere. […] The duration each animal spent exploring the objects was recorded. Time spent exploring the identical objects in T1 was recorded as a1 and a2; time spent exploring the familiar and the novel objects in T2 was recorded as “a” and “b”, respectively. The following variables were calculated: e1 = a1 + a2, e2 = a + b, the relative discrimination index d2 = (b–a)/e2.
For the scopolamine-induced memory impairment models, a single dose of scopolamine (0.1 mg/kg, IP) was administered 30 min before the training session of the NOR. Animals treated with H-89 or vehicle were implanted with 26-gauge guide cannula unilaterally (AP −0.2 mm from Bregma, ML +1 mm from the midline, DV−2mm from skull surface) and rested for a week before any tests.
Novel object recognition. Mice were handled for 3-5 min for 5 days in a row. The novel object recognition test was performed in a Plexiglas open field box (L30 cm, W50 cm, H40 cm) as described elsewhere^64,65. Briefly, the task procedure consists of three phases: habituation, training (T1), and testing (T2). In the habituation phase (day 1), each animal is allowed to freely explore the apparatus for 10 min; then the animal is returned to its home cage. During the training phase (day 2), a single animal is placed in the center of the open field containing two identical objects located on the diagonal of the field, and allowed to explore for 5 min. After a retention interval after T1 of 24 h (long-term recall) or 1 h (scopolamine-impairment model), the animal was subjected to the T2 testing phase for 5 min, during which one familiar object and one novel object were presented. […] The duration each animal spent exploring the objects was recorded. Time spent exploring the identical objects in T1 was recorded as a1 and a2; time spent exploring the familiar and the novel objects in T2 was recorded as ‘a’ and ‘b’, respectively. The following variables were calculated: e1 = a1 + a2, e2 = a + b, the relative discrimination index d2 = (b – a)/e2.

[2] = target: PDE4 binding sites in wild-type mouse brain membranes; assay: [3H]-rolipram radioligand binding to brain membranes; details: for Ki: wild-type
Experimental: (§1) Mice were killed by decapitation, and the brains were immediately dissected on ice and homogenized in binding buffer using a Polytron homogenizer (Brinkman Instruments, Westbury, NY). The membrane fraction of the homogenate was obtained by centrifugation at 15,000 × g for 15 min, and resuspension of the pellet in the binding buffer.
(§2) Mice were killed by decapitation, and the brains were immediately dissected on ice and homogenized in binding buffer (50 mM Tris-HCl, 5 mM MgCl2, pH 7.5) using a Polytron homogenizer (Brinkman Instruments, Westbury, NY). The membrane fraction of the homogenate was obtained by centrifugation at 15,000 g for 15 min, and resuspension of the pellet in the binding buffer^29.
(§3) At the end of the incubation, reactions were stopped by adding 5 ml of the ice-cold binding buffer and rapid vacuum filtration through glass fiber filters that had been soaked in 0.3% polyethyleneimine. The filters were then washed twice with 5 ml of the ice-cold binding buffer, and discs of filter paper were collected for measurement of radioactivity by liquid scintillation counting.

[3] = target: PDE4 binding sites in humanized PDE4D mouse brain membranes; assay: as above; details: for Ki: hPDE4D
Experimental: as §1, §2, §3

humanized PDE4D mice [4] = assay: Y-maze spontaneous alternation test; format: in vivo, mouse
Experimental: (§4) The test consists of a single 5 min trial, in which the mouse was allowed to explore all three arms of the Y-maze [31]. Spontaneous alternation (%) was defined as consecutive entries in three different arms, divided by the number of possible alternations (total arm entries minus 2).
(§5) Y-maze spontaneous alternation test. The Y-maze apparatus made of matt blue Plexiglas had three identical arms (L 40 cm, W 5 cm, H 15 cm) placed at 120° from each other. The test consisted of a single 5 min trial, in which the mouse was allowed to explore all three arms of the Y-maze. The start arm was varied between animals to avoid placement bias. Spontaneous Alternation (%) was defined as consecutive entries in 3 different arms, divided by the number of possible alternations (total arm entries minus 2). Mice with less than 8 arm entries during the 5-min trial were excluded from the analysis.

humanized PDE4D mice [5] = assay: Novel object recognition, 24 h inter-trial interval; format: in vivo, mouse
Experimental: (§6) The novel object recognition test was performed as described elsewhere [32, 33]. Briefly, the task procedure consists of three phases: habituation phase on day 1 for 10 min, training (T1) phase on day 2 for 5 min, and testing (T2) phase on day 3 for 5 min. The duration each animal spent exploring the objects was recorded. Time spent exploring the identical objects in T1 was recorded as a1 and a2; time spent exploring the familiar and the novel objects in T2 was recorded as “a” and “b”, respectively. The following variables were calculated: e1 = a1 + a2, e2 = a + b, the relative discrimination index d2 = (b–a)/e2.
Novel object recognition. Mice were handled for 3-5 min for 5 days in a row. The novel object recognition test was performed in a Plexiglas open field box (L30 cm, W50 cm, H40 cm) as described elsewhere^64,65. Briefly, the task procedure consists of three phases: habituation, training (T1), and testing (T2). In the habituation phase (day 1), each animal is allowed to freely explore the apparatus for 10 min; then the animal is returned to its home cage. During the training phase (day 2), a single animal is placed in the center of the open field containing two identical objects located on the diagonal of the field, and allowed to explore for 5 min. After a retention interval after T1 of 24 h (long-term recall) or 1 h (scopolamine-impairment model), the animal was subjected to the T2 testing phase for 5 min, during which one familiar object and one novel object were presented. The arena and objects were thoroughly wiped with 70% ethanol after each trial to avoid the presence of any olfactory cues. The animals were considered to be exploring the object when directing their nose to the object at a distance of no more than 2 cm and/or touching or sniffing the object. The duration each animal spent exploring the objects was recorded. Time spent exploring the identical objects in T1 was recorded as a1 and a2; time spent exploring the familiar and the novel objects in T2 was recorded as ‘a’ and ‘b’, respectively. The following variables were calculated: e1 = a1 + a2, e2 = a + b, the relative discrimination index d2 = (b – a)/e2.

wild-type mice [6] = assay: Y-maze spontaneous alternation test; format: in vivo, mouse
Experimental: as §4, §5

wild-type mice [7] = assay: Novel object recognition, 24 h inter-trial interval; format: in vivo, mouse
Experimental: as §6
Novel object recognition. Mice were handled for 3-5 min for 5 days in a row. The novel object recognition test was performed in a Plexiglas open field box (L30 cm, W50 cm, H40 cm) as described elsewhere^64,65. Briefly, the task procedure consists of three phases: habituation, training (T1), and testing (T2). […] The duration each animal spent exploring the objects was recorded. Time spent exploring the identical objects in T1 was recorded as a1 and a2; time spent exploring the familiar and the novel objects in T2 was recorded as ‘a’ and ‘b’, respectively. The following variables were calculated: e1 = a1 + a2, e2 = a + b, the relative discrimination index d2 = (b – a)/e2.

humanized PDE4D mice [8] = details: 1 mg/kg IP, hPDE4D mice
wild-type mice [9] = assay: Ketamine/xylazine anesthesia duration (surrogate of emesis); details: 1 mg/kg IP
[10] = H-89 1 µg i.c.v. followed by BPN14770 0.03 mg/kg PO, hPDE4D mice
[11] = inhibition of 2 nM [3H]-rolipram binding, read-out: One-site Ki
[12] = inhibition of [3H]-rolipram binding, read-out: Two-site Ki1
[13] = inhibition of [3H]-rolipram binding, read-out: Two-site Ki2

## CN1[C@@H]2C[C@@H](OC(=O)[C@H](CO)c3ccccc3)C[C@H]1[C@@H]1O[C@@H]12 [scopolamine, reference compound]
Humanized PDE4D mice [1]
  effect on short-term memory in NOR: abolished short-term memory formation

## COc1ccc(C2CNC(=O)C2)cc1OC1CCCC1 (centres unmarked) [[^3H]-rolipram]
[2]; wild-type mouse brain membranes, read-out: Kd of [3H]-rolipram saturation binding
  Kd: 3.84 nM
[3]; humanized PDE4D mouse brain membranes, read-out: Kd of [3H]-rolipram saturation binding
  Kd: 3.72 nM

## O=S(=O)(NCCNC/C=C/c1ccc(Br)cc1)c1cccc2cnccc12 [H-89, reference compound]
Humanized PDE4D mice [4]; [10]
  effect on memory benefit of BPN14770 in Y-maze: significantly antagonized the effect of BPN14770 on memory
Humanized PDE4D mice [5]; [10]
  effect on memory benefit of BPN14770 in NOR: significantly antagonized the effect of BPN14770 on memory

## COc1ccc(C2CNC(=O)C2)cc1OC1CCCC1 (centres unmarked) [Rolipram]
[2]; [11]
  Ki: 1.99 ± 0.11 nM
[2]; [12]
  Ki: 0.75 ± 0.33 nM
[2]; [13]
  Ki: 34.1 ± 26.8 nM
[3]; [11]
  Ki: 1.66 ± 0.07 nM
[3]; [12]
  Ki: 0.39 ± 0.07 nM
[3]; [13]
  Ki: 6.1 ± 0.79 nM
wild-type mice [6]
  MED in Y-maze: 0.1 mg/kg IP
Humanized PDE4D mice [4]; humanized PDE4D mice
  MED in Y-maze: 0.1 mg/kg IP
wild-type mice [7]
  MED in NOR: 0.1 mg/kg IP
Humanized PDE4D mice [5]; humanized PDE4D mice, 24 h inter-trial interval
  MED in NOR: 0.1 mg/kg IP
Humanized PDE4D mice [8]
  effect on ketamine/xylazine anesthesia duration: significantly reduced the anesthesia duration
wild-type mice [9]
  effect on ketamine/xylazine anesthesia duration: significantly reduced the anesthesia duration
